Reference: paper PMC9964746, “Mechanism of Action and Structure–Activity Relationships of Tetracyclic Small Molecules Acting as Universal Positive Allosteric Modulators of the Cholecystokinin Receptor” (Membranes, 2023)
Values joined by “and” are separate entries in the source; they are usually repeats but may differ in a detail not shown here. Equal values may be shown once.

Columns and labels:
Type in all cases: cell-based
[1] = target: T1, CCK1R (Homo sapiens, UniProt P32238); assay: IP-One accumulation TR-FRET assay, agonist format, HEK-293 CCK1R cells; design: expressed in transfected cells; host or cells: HEK-293; details: for Emax: HEK293, relative to CCK control, average ± SD, read-out: CCK1R Ago (IP-One) Emax
T1 sequence (P32238 1-428): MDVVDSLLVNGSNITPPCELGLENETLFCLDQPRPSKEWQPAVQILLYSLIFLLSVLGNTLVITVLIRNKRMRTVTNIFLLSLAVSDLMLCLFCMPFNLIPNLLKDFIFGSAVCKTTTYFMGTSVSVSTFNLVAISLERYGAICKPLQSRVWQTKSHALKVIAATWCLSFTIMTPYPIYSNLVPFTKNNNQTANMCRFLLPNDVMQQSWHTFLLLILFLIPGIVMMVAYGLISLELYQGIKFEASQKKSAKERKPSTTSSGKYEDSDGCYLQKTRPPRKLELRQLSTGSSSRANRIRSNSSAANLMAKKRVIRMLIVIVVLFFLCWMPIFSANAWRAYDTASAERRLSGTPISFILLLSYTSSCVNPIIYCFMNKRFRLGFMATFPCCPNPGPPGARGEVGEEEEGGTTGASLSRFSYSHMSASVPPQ
Method: (§1) For structure–activity relationship studies, we performed myo-inositol-1-phosphate (IP-One) accumulation assays with TR-FRET technology applied to the HEK-293 cell line overexpressing CCK1Rs, as we had described in our high throughput screening effort. In brief, thawed cryopreserved cell stocks were re-suspended in IP-One assay media consisting of phenol-red free DMEM (Corning, Corning, NY, USA, #17-205-CV) with 10% FBS, 1% penicillin (10,000 units)/streptomycin (10 mg) (Pen/Strep, Thermo Fisher Scientific, Waltham, MA, USA, Gibco #15140122), and 1% L-glutamine (200 mM) (Gibco #25030081) and diluted to required cell densities. Then, the cell suspension was dispensed into a 1536-well tissue culture microplate (Corning, #3727), and the plate was incubated overnight at 37 °C and 5% CO^2. After 16–20 h, DMSO or compounds were added with an Echo liquid handler (Labcyte, San Jose, CA, USA), resulting in a top final compound concentration of 50 µM diluted 2-fold for 16-point dose–responses. For the positive allosteric modulator (PAM) format, orthosteric stimulator (CCK) dilutions for control wells were prepared in assay media containing 150 mM lithium chloride (LiCl, 50 mM final, Sigma-Aldrich, St Louis, MO, USA, #L7026). After a 30 min incubation of test compounds at 37 °C and 5% CO2, orthosteric stimulator dilutions (for PAM format) or equivalent dilutions of DMSO (for agonist format) were added to designated wells using BioRaptr (Beckman Coulter, Brea, CA, USA). In addition, CCK control ligand dilutions were included on each test plate. After that, the plate was incubated for 1 h at 37 °C and 5% CO^2 and equilibrated to room temperature. Detection reagents from the IP-One Gq detection kit from Cisbio (Cisbio US Inc., Bedford, MA, USA, #62IPAPEJ) were added, and after 1 h at RT, IP-One content was measured with a PHERAstar FSX microplate reader (BMG Labtech, Ortenberg, Germany). Control ligand dose–responses were analyzed using GraphPad Prism 9.3.1 (San Diego, CA, USA) to validate adequate control and test well concentrations for positive allosteric modulation (PAM) and agonist formats. Dose–response curves were performed as 16-point 2-fold dilutions in duplicates in at least three independent experiments. Large data sets were uploaded and analyzed with CBIS (Chemical and Biology Information System software, ChemInnovation Software, Inc., San Diego, CA, USA). Further data analysis for detailed SAR studies was conducted using the D360 software (Certara).
(§2) The potency and efficacy data for these compounds were used to calculate their activity scores using the following formula: Activity Score = normalized Emax × pEC50. Normalized Emax represents the efficacy of the compound as a fractional response relative to that of the CCK control ligand. pEC50 represents the positive logarithmic value of compound EC50 concentrations in (M).

[2] = target: T1, CCK1R; assay: IP-One accumulation TR-FRET assay, PAM format, HEK-293 CCK1R cells; design: expressed in transfected cells; host or cells: HEK-293; details: for Emax: HEK293, relative to CCK control; for Emax / CCK1R PAM (IP-One) Score (activity score = normalized Emax × pEC50) / EC50: HEK-293 CCK1R cells; for Emax / CCK1R PAM (IP-One) Score (activity score = normalized Emax × pEC50): PAM format; for Emax / EC50: average ± SD; for EC50: PAM format with EC20 CCK; for CCK1R IP-One activity (in words): PAM and agonist formats
Method: as §1, §2

[3] = target: T2, vasopressin-2 receptor (AVP2R) (Homo sapiens, UniProt P30518); assay: AVP2R cAMP HTRF accumulation assay; details: for EC50 / Emax: PAM format with vasopressin, original hits: agonist and PAM data combined, average ± SD
T2 construct: expressed in transfected cells; host or cells: CHO-K1 (PAM format); HEK-293 (agonist format)
Method: Possible off-target biological effects. […] Here, we tested them at the vasopressin-2 receptor (AVP2R), representing a class A GPCR structurally related to CCK1R, which is coupled to Gs. The activity at AVP2R was tested using AVP2R-overexpressing CHO-K1 (PAM format) or HEK-293 (agonist format) cells, stimulating the cells with vasopressin. Original hits were tested in both agonist and PAM formats. Since all recognized compound responses were present in both formats, we continued to screen analogs in only the PAM format (also able to capture agonist effects) in CHO-K1 AVP2R cells for potential enhanced sensitivity. The dose–response data sets for original hits were combined, as the PAM and agonist effects were indistinguishable. In brief, arginine vasopressin (AVP) orthosteric stimulator dilutions and ligand and compound dose–response titrations in DMSO were transferred onto a 1536-well plate (Corning #3725) using an Echo liquid handler (Labcyte). Thawed cryopreserved cell stocks were diluted in stimulation buffer consisting of HBSS (Hank’s Balanced Salt Solution with Ca^2+ and Mg^2+, Gibco #24020117), 5 mM HEPES (hydroxyethyl piperazineethanesulfonic acid), 0.5 mM IBMX (3-isobutyl-1-methylxanthine, Sigma-Aldrich), and 0.075% BSA (7.5% DTPA-purified bovine serum albumin, PerkinElmer). The resulting cell suspension was added to the microplate and incubated with test compounds at room temperature for 30 min. Then, the detection reagents from the Cisbio cAMP Gs Dynamic HTRF detection kit were added. The plate was kept at room temperature for 30 min and read on a PHERAstar FSX microplate reader. Dose–response curves were performed as 16-point 2-fold dilutions in duplicate in at least two independent experiments.

T2 sequence (P30518 whole entry): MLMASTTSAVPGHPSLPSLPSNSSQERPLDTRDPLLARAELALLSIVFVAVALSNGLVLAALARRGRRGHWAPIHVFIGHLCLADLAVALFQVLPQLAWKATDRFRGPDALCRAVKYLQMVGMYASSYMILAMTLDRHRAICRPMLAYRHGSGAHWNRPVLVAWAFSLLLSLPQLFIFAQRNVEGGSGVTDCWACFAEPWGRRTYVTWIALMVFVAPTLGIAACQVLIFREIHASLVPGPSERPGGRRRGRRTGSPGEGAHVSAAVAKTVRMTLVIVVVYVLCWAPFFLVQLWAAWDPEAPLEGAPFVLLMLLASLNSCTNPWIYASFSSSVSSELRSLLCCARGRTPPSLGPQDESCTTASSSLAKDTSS

Row | SMILES | CCK1R Ago (IP-One) Score (activity score = normalized Emax × pEC50) [1] | Emax [2] | CCK1R PAM (IP-One) Score (activity score = normalized Emax × pEC50) [2] | EC50 [2] | AVP2R PAM (cAMP) Score (activity score = normalized Emax × pEC50) ([3]; CHO-K1 AVP2R cells, PAM format) | EC50 ([3]; CHO-K1 AVP2R cells) | Emax ([3]; CHO-K1 AVP2R cells) | Emax [1] | CCK1R IP-One activity (in words) [2] | Log(Rmax/R50) ([2]; CCK1R IP-One PAM assay) | AVP2R cAMP response (in words) ([3]; PAM format) | Emax ([3]; CHO-K1, CHO-K1 AVP2R cells)
1 | CCCc1nc2oc3c(NCCCN(CC)CC)ncnc3c2c2c1CCCC2 [CMP-36] | 0 | 25 ± 10% | 1.32 | 3.3 ± 5.4 µM | 1.41 | 6.1 ± 2.8 µM | 27 ± 20% | – | – | – | – | –
2 | OCCN1CCN(c2ncnc3c2sc2nc(-c4ccccc4)c4c(c23)CCC4)CC1 [CMP-37] | 0 | 28 ± 9% | 1.26 | 31.7 ± 1.2 µM | 0 | – | 0% | 0% | loss of activities across all formats | – | – | –
3 | CCCc1nc2sc3c(SC)ncnc3c2c2c1CCCC2 [CMP-38] | 0 | 20 ± 7.6% | 1.0 and 1.01 | 7.6 ± 3.3 µM | 0 | – | 0% | 0% | – | 4.4 | – | –
4 | COc1ccc(NC(=O)CSc2ncnc3c2sc2nc(N4CCOCC4)c4c(c23)CCCC4)cc1 [CMP-40] | 0 | 0% | 0 | – | 5.33 | 2.9 ± 0.1 µM | 96 ± 9% | 0% | – | – | strong activation of AVP2R-mediated cAMP accumulation | –
5 | O=C(CSc1ncnc2c1sc1nc(N3CCOCC3)c3c(c12)CCCC3)Nc1ccc(Br)cc1 [CMP-41] | 0 | 0% | 0 | – | 0 | – | 0% | 0% | – | – | – | –
6 | c1ccc(CCNc2ncnc3c2sc2nc(N4CCOCC4)c4c(c23)CCCC4)cc1 [CMP-42] | 0 | 0% | 0 | – | 0 | – | 0% | 0% | None of these analogs showed any CCK1R activity | – | – | –
7 | C/C(Br)=C\CSc1ncnc2c1sc1nc(N3CCOCC3)c3c(c12)CCCC3 [CMP-44] | 0 | 0% | 0 | – | 0 | – | 0% | 0% | displayed no effects | – | – | –
8 | O=C(O)CSc1ncnc2c1sc1nc(N3CCOCC3)c3c(c12)CCCC3 [CMP-45] | 0 | 0% | 0 | – | 1.46 | 37.9 ± 7 µM | 33 ± 13% | 0% | displayed no effects | – | – | –
9 | CCN(CC)c1ncnc2c1sc1nc(N3CCOCC3)c3c(c12)CCCC3 [CMP-46] | 0 | 0% | 0 | – | 0 | – | 0% | 0% | significantly diminished responses | – | – | –
10 | COCCNc1ncnc2c1sc1nc(N3CCOCC3)c3c(c12)CCCC3 [CMP-47] | 0 | 0% | 0 | – | 0 | – | 0% | 0% | None of these analogs showed any CCK1R activity | – | – | –
11 | CCCCNc1ncnc2c1sc1nc(N3CCOCC3)c3c(c12)CCCC3 [CMP-48] | 0 | 0% | 0 | – | 0 | – | 0% | 0% | None of these analogs showed any CCK1R activity | – | – | –
12 | OCCNc1ncnc2c1sc1nc(N3CCOCC3)c3c(c12)CCCC3 [CMP-49] | 0 | 0% | 0 | – | 0 | – | – | 0% | None of these analogs showed any CCK1R activity | – | – | 0%
13 | C=CCNc1ncnc2c1sc1nc(N3CCOCC3)c3c(c12)CCCC3 [CMP-50] | 0 | 0% | 0 | – | 0 | – | 0% | 0% | None of these analogs showed any CCK1R activity | – | – | –
14 | NNc1ncnc2c1sc1nc(N3CCOCC3)c3c(c12)CCCC3 [CMP-51] | 0 | 0% | 0 | – | 0 | – | 0% | 0% | significantly diminished responses | – | – | –
15 | CCCc1nc2oc3c(NN)ncnc3c2c2c1CCCC2 [CMP-53] | 0 | 0% | 0 | – | 2.95 | 15.3 ± 9.8 µM | 61 ± 12% | 0% | – | – | – | –
